According to US12703851B2, “Cell culture methods” (The University of Massachusetts, priority 2019, dated 2026):
“Also recorded” adds a separate entry of the source.

Key:
Assay type in all cases: cell-based, Chinese hamster
CHO K-1 = assay: Batch culture spiking of metabolites at end-of-culture concentration; conditions: spiked at end-of-culture concentration, 6 days batch culture
Experimental: CHO K-1 industrial standard batch process: NIH CHO-K1 cell line is cultured for 6 days, with 6 mM glutamine supplement on the inoculation day. The working volume is 30 mL in 125 mL shake flasks, and the inoculation cell density is 0.5 million cells/mL. The parameters for the shaking incubator are: 125 RPM, and 5% CO2.
Cells were exposed to the identified inhibitory metabolites of Table 1 at their end-of-culture concentration for 6 days in batch culture. […] All of the inhibitory metabolites decreased the antibody productivity (FIG. 4).

CHO-K1 cell line = assay: Fed-batch spiking test, IgG glycan profile by HPLC with Glycan Column; conditions: for impact on G1F formation: versus control group
Experimental: Industrial standard Fed-batch process: CHO-K1 cell line is cultured in corresponding media. Feed for 14 days, with 6 mM glutamine supplement on the inoculation day. The working volume is 30 mL in 125 mL shake flasks, and the inoculation cell density is 0.5 million cells/mL. The parameters for the shaking incubator are: 125 RPM, and 5% CO2. The feeding strategy is 10% corresponding feed everyday starting from day 3 to day 13.
In the standard industrial fed-batch process, cells were exposed to the inhibitors for a long period of time. This experiment mimics the therapeutic antibody production process, and spikes the inhibitors at their end-of-culture cellular concentration. ICA was confirmed as a known inhibitor and was used as a positive inhibitor control. Mixture condition excluded ICA and included AA, HICA, CMP, MSA, TRI, NAP. The process lasted for 14 days, and starting from day 6, the cell density under the inhibitor conditions were lower than the negative control batch.
IgG titer was measured by HPLC with a Protein A column. Product quality was quantified by the IgG glycan profile, which was measured by HPLC with a Glycan Column.

CHO-S cells = assay: Inhibitory metabolite accumulation in transiently transfected CHO-S subclones (LC-MS); parameters: dose or concentration left out as unconfirmed; conditions: 6 days
Experimental: FIG. 17A-G are graphs showing inhibitory metabolite accumulation in different subclones. Accumulation concentration of metabolites shown here: FIG. 17A, CMP; FIG. 17B, GMP; FIG. 17C, HICA, FIG. 17D, MSA, FIG. 17E, NAP, FIG. 17F, TAA; and FIG. 17G, TRI. The study was divided into […] unique subclone groups. […] A negative control was included where no plasmid transfection occurred. Each subclone was cultured for 6 days at which time cells and cell culture supernatant were collected. Cells for both the control and transfection subclones were derived from the same culture to eliminate variation in growth cycle and other culture conditions. Quantification of inhibitory metabolites accumulation was performed through LC-MS. Bars, mean±s.e.m.; n=3, *p<0.05, **p<0.01, ***p<0.001. Statistics by two-tailed t-test. LC-MS/MS method for metabolites profiling: Standards of metabolites were purchased from Sigma Aldrich (St. Louis, MO) and used for identification of wasted inhibitor metabolites. Operating parameters and samples preparation protocol were followed to a previously published protocol. Quantification of expression level of transfected gene of interest through qPCR. The expression level of seven different genes transfected into CHO-S cells were evaluated using relative quantification (RQ) compared to the calibrator. The study was divided into eight unique subclone groups. […] A negative control was included in the study where no genetic engineering work involving plasmid transfection occurred. Each subclone was cultured for 6 days. Cells for both the control and transfection subclones were derived from the same culture to eliminate variation in growth cycle and other culture conditions. […] Gene functionality study through metabolic pathway analysis. As mentioned previously, HICA is generated as the downstream metabolite from the metabolism of leucine in mammalian cells, of which cellular biochemical activities are regulated by ADH5 and BCAT1 enzymes. […] A negative control was included in the study where no genetic engineering work involving plasmid transfection occurred.

Compound	cell density versus control group (CHO K-1)	impact on G1F formation (CHO-K1 cell line)	decrease in accumulation versus control (CHO-S cells; Got1 transfected clone)	decrease in accumulation versus control (CHO-S cells; Slc35a1 transfected clone)	decrease in accumulation versus control (CHO-S cells; Bcat1 transfected clone)	decrease in accumulation versus control (CHO-S cells; Hadhb transfected clone)	further results
O=C(O)c1c[nH]c2ccccc12 [ICA, indole-3-carboxylic acid, reference compound]	lower cell density than the control group	higher impact on G1F formation	–	–	–	–	–
CC(CC(=O)O)C(=O)O (centres unmarked) [MSA, methylsuccinic acid]	–	higher impact on G1F formation	–	–	–	–	–
Nc1ccn([C@@H]2O[C@H](COP(=O)(O)O)[C@@H](O)[C@H]2O)c(=O)n1 [CMP, cytidine-5′-monophosphate]	lower cell density than the control group	higher impact on G1F formation	35.68%	50.63%	–	–	decrease in accumulation versus control (CHO-S cells; Hoga1 transfected clone): 33.59%
C[n+]1cccc(C(=O)[O-])c1 [TRI, trigonelline]	–	–	40.43%	–	42.96%	35.38%	decrease in accumulation versus control (CHO-S cells; Cat transfected clone): 27.8%
O=C(O)C=C(CC(=O)O)C(=O)O [AA, aconitic acid]	lower cell density than the control group	higher impact on G1F formation	–	–	–	–	impact on G2F formation (CHO-K1 cell line; Day 14, versus control group): totally inhibits the G2F formation; also recorded: G2F was not formed
CC(C)CC(O)C(=O)O (stereo not drawn) [HICA, α-hydroxyisocaproic acid]	–	higher impact on G1F formation	–	73.51%	72.31%	27.05%	decrease in accumulation versus control (CHO-S cells; Adh5 transfected clone): 86.13%
